According to article PMC4183595, “Study on the Main Components Interaction from Flos Lonicerae and Fructus Forsythiae and Their Dissolution In Vitro and Intestinal Absorption in Rats” (PLoS ONE, 2014):
Read-outs that look alike come from different tables or passages of the source.

Columns and labels:
Caco-2 cells = test: In vitro Caco-2 monolayer model, apical to basolateral transport (P app); assay type: in vitro ADME, human; settings: for P app in product C group, % compared to that in product A group / P app in product C group, % compared with that in product B group: Caco-2 monolayer, HBSS pH 6.0, apical to basolateral
Description: Caco-2 cells were cultured in high glucose DMEM with 10% fetal bovine serum, 1% nonessential amino acids. Cells were cultured in a humidified atmosphere of 5% CO2 at 37°C. After reaching 80% confluens, Caco-2 cells were harvested with 0.05% trypsin-EDTA solution and seeded on top of CC inserts in 6-well plates, which has a surface area of 4.2 cm^2, at a density of 1.0×10^5 cells/cm^2. The protocols for cell culture in Transwell inserts were similar to those described previously.
Hank’s balanced salt solution (HBSS) was used as the transport buffer for the transport study in Caco-2 cells monolayer model. It was prepared by dissolving 9.5 grams of commercial available HBSS powder in 1000 mL water.
Cell culture experiments were described previously. Briefly, after culture medium was aspirated, the cell monolayers were washed three times with blank HBSS. […] The monolayers were incubated with the blank HBSS for 1 h with 37°C. Thereafter the incubation medium was aspirated. Afterwards, a solution containing the compound was loaded onto the apical side. The amounts of transported compound were measured as a function of time. […] The samples were taken at 0, 1, 2, 3 and 4 h after incubation. At the end of the transport experiment, integrity of the monolayer was monitored by TEER value.

[1] = Rat in vivo pharmacokinetics study after oral administration of product A, B or C; parameters: species or system Male Sprague-Dawley (SD) rats; settings: for AUC(0-inf) / MRT / Tmax / half-life / Cmax: male, Sprague-Dawley, rat, plasma, po, 10 mL·kg^−1, rats; for AUC(0-inf) / MRT / Tmax / half-life: 10 mL·kg^−1; for half-life: read-out: T 1/2z; for Cmax: mean±SD; for AUC 0→t in product C group compared with product A or B group / bioavailability in product C group compared with that in product A group / bioavailability in product C group compared with that in product B group: rats, oral; for AUC 0→t in product C group compared with product A or B group: same dosages administrated
Description: Product A (extract mixed with FLJ extract and water, (1∶1, v / v )), product B (extract mixed with FF extract and water, (1∶1, v / v )) and product C (extract mixed with FLJ and FF extracts, (1∶1, v / v )) were given to oral administration to rats, respectively.
Male SD rats (∼250 g) were kept in an environmentally controlled breeding room (temperature: 20±2°C, relative humidity: 60±5%) for 1 week. […] The rats were randomly divided into three groups with no less than six rats in each group to receive various administrations at a single oral dose (10 mL·kg^−1) by gastric gavage. […] Subsequently, plasma was prepared by centrifugation at 1,816×g, 4°C for 7 min, and immediately analyzed or stored at −70°C for further analysis.
The main pharmacokinetic parameters including the peak plasma concentration (C max), the time to C max (T max), the AUC from 0 to infinity (AUC 0–∞), the AUC form 0 to time (AUC 0–t), mean residence time (MRT), and terminal elimination half-life (T 1/2z) were calculated by the non-compartmental analysis of plasma concentration vs. time data using the “DAS 2.1.1” software (Mathematical Pharmacology Professional Committee of China, Shanghai, China).

[2] = single oral dose 10 mL·kg^−1 of product A (FLJ extract and water 1:1)
[3] = single oral dose 10 mL·kg^−1 of product C (FLJ and FF extracts 1:1)
[4] = single oral dose 10 mL·kg^−1 of product B (FF extract and water 1:1)

For `O=c1cc(-c2ccc(O)c(O)c2)oc2cc(O)cc(O)c12` [Luteolin], the “P app in product C group, % compared to that in product A group” value (Caco-2 cells) was 240%, the AUC(0-inf) ([1]; oral product A) was 88.3 ng·h/mL and the MRT ([1]; oral product A) was 5.78 h. It also gave a Tmax ([1]; oral product A) of 10 min, a half-life ([1]; oral product A) of 423 ± 56.6 min and an AUC(0-inf) ([1]; oral product C) of 46.9 ng·h/mL. For the same molecule, the MRT ([1]; oral product C) was 4.67 h, the Tmax ([1]; oral product C) was 10 min and the half-life ([1]; oral product C) was 265 ± 15.7 min. The Cmax [1, 2] was 44.9 ± 19.8 ng/mL, the Cmax [1, 3] was 19.5 ± 5.43 ng/mL and the “AUC 0→t in product C group compared with product A or B group” value [1] was “lower significantly”.

For `O=C(O)/C=C/c1ccc(O)c(O)c1` [Caffeic acid], the “P app in product C group, % compared to that in product A group” value (Caco-2 cells) was 275%, the “P app in product C group, % compared with that in product B group” value (Caco-2 cells) was 247% and the AUC(0-inf) ([1]; oral product A) was 1190 ng·h/mL. The MRT ([1]; oral product A) was 6.65 h, the Tmax ([1]; oral product A) was 10 min and the half-life ([1]; oral product A) was 360 ± 66.3 min. For the same molecule, the AUC(0-inf) ([1]; oral product B) was 683 ng·h/mL, the MRT ([1]; oral product B) was 5.57 h and the Tmax ([1]; oral product B) was 10 min. It also gave a half-life ([1]; oral product B) of 332 ± 53.6 min, an AUC(0-inf) ([1]; oral product C) of 737 ng·h/mL and an MRT ([1]; oral product C) of 6.28 h. For the same molecule, the Tmax ([1]; oral product C) was 10 min, the half-life ([1]; oral product C) was 392 ± 61.1 min and the Cmax [1, 2] was 181 ± 17.6 ng/mL. For the same molecule, the Cmax [1, 4] was 91.1 ± 6.74 ng/mL, the Cmax [1, 3] was 98.1 ± 16.2 ng/mL and the “bioavailability in product C group compared with that in product A group” value [1] was “significantly lower”. The “bioavailability in product C group compared with that in product B group” value [1] was “no significant difference”.

With `O=c1c(O[C@@H]2O[C@H](CO)[C@@H](O)[C@H](O)[C@H]2O)c(-c2ccc(O)c(O)c2)oc2cc(O)cc(O)c12` [Isoquercitrin] the “P app in product C group, % compared to that in product A group” value (Caco-2 cells) was 169%, the “P app in product C group, % compared with that in product B group” value (Caco-2 cells) was 234% and the AUC(0-inf) ([1]; oral product A) was 2.63 ng·h/mL. It also gave an MRT ([1]; oral product A) of 9.28 h, a Tmax ([1]; oral product A) of 10 min and a half-life ([1]; oral product A) of 436 ± 26.3 min. The AUC(0-inf) ([1]; oral product B) was 3.25 ng·h/mL, the MRT ([1]; oral product B) was 8.3 h and the Tmax ([1]; oral product B) was 20 min. It also gave a half-life ([1]; oral product B) of 471 ± 30.9 min, an AUC(0-inf) ([1]; oral product C) of 5.51 ng·h/mL and an MRT ([1]; oral product C) of 9.25 h. For the same molecule, the Tmax ([1]; oral product C) was 16 min, the half-life ([1]; oral product C) was 455 ± 52.1 min and the Cmax [1, 2] was 0.504 ± 0.351 ng/mL. For the same molecule, the Cmax [1, 4] was 0.619 ± 0.212 ng/mL, the Cmax [1, 3] was 1 ± 0.3 ng/mL and the “bioavailability in product C group compared with that in product A group” value [1] was “no significantly different”. The “bioavailability in product C group compared with that in product B group” value [1] was “no significantly different”.

With `O=c1c(-c2ccc(O)cc2)coc2cc(O)cc(O)c12` [Genistein] the “P app in product C group, % compared to that in product A group” value (Caco-2 cells) was 293%, the AUC(0-inf) ([1]; oral product A) was 240 ng·h/mL and the MRT ([1]; oral product A) was 10.8 h. For the same molecule, the Tmax ([1]; oral product A) was 14 min, the half-life ([1]; oral product A) was 600 ± 76.4 min and the AUC(0-inf) ([1]; oral product C) was 28.6 ng·h/mL. It also gave an MRT ([1]; oral product C) of 7.72 h, a Tmax ([1]; oral product C) of 15 min and a half-life ([1]; oral product C) of 411 ± 67.7 min. For the same molecule, the Cmax [1, 2] was 5.09 ± 2.46 ng/mL, the Cmax [1, 3] was 2.3 ± 1 ng/mL and the “AUC 0→t in product C group compared with product A or B group” value [1] was “lower significantly”.

In the case of `COc1ccc(C[C@H]2COC(=O)[C@@H]2Cc2ccc(O[C@@H]3O[C@H](CO)[C@@H](O)[C@H](O)[C@H]3O)c(OC)c2)cc1OC` [arctiin], the “absorption into Caco-2 cells” value (Caco-2 cells; dipsacoside B, macranthoidin B in product C or A group, arctiin in product C or B group) is reported as “might not be absorbed well”.

With `O=c1c(O)c(-c2ccc(O)c(O)c2)oc2cc(O)cc(O)c12` [Quercetin] the “P app in product C group, % compared to that in product A group” value (Caco-2 cells) was 125%, the “P app in product C group, % compared with that in product B group” value (Caco-2 cells) was 256% and the AUC(0-inf) ([1]; oral product A) was 144 ng·h/mL. The MRT ([1]; oral product A) was 8.22 h, the Tmax ([1]; oral product A) was 10 min and the half-life ([1]; oral product A) was 277 ± 52.6 min. For the same molecule, the AUC(0-inf) ([1]; oral product B) was 65 ng·h/mL, the MRT ([1]; oral product B) was 7 h and the Tmax ([1]; oral product B) was 10 min. The half-life ([1]; oral product B) was 316 ± 55.8 min, the AUC(0-inf) ([1]; oral product C) was 52.4 ng·h/mL and the MRT ([1]; oral product C) was 7.12 h. It also gave a Tmax ([1]; oral product C) of 10 min, a half-life ([1]; oral product C) of 280 ± 62.9 min and a Cmax [1, 2] of 15.6 ± 4.39 ng/mL. The Cmax [1, 4] was 12.6 ± 2.23 ng/mL, the Cmax [1, 3] was 8.02 ± 0.493 ng/mL and the “bioavailability in product C group compared with that in product A group” value [1] was “opposite”. For the same molecule, the “bioavailability in product C group compared with that in product B group” value [1] was “opposite”.
